Measured values from paper PMC7993387, “The preclinical inhibitor GS441524 in combination with GC376 efficaciously inhibited the proliferation of SARS-CoV-2 in the mouse respiratory tract” (Emerging Microbes & Infections, 2021).

Tests used:
[1] = Cell viability (Cell Titer-Glo) in Vero E6 cells; format: cell-based; conditions: African green monkey
Method: Cell viability was determined using the Cell Titer-Glo kit (Promega, Madison, WI, USA) following the manufacturer’s instructions. Briefly, Vero E6 cells were seeded in 96-well plates with opaque walls. […] Cell Titer-Glo reagent was added to each well, and luminescence was measured using a GloMax 96 Microplate Luminometer (Promega, Madison, WI, USA).

[2] = Single-dose pharmacokinetics in SD rats; format: in vivo; conditions: for AUC(0-t) / Tmax / Vd/F / CL/F / Cmax / half-life / MRT last / MRT inf: Sprague-Dawley, rat, plasma, im; for MRT last: read-out: MRT0−t; for MRT inf: read-out: MRT0−∞
Method: (§1) Healthy SPF BALB/c mice (7-8 weeks) and SD rats (4-6 weeks) were used in a single-dose PK study. […] The blood was collected at 0, 0.083, 0.25, 0.5, 1, 2, 4, 8, 12 and 24 h and placed in a precooled polypropylene centrifuge tube containing 3.0 µl of 40% EDTAK2. Then, the whole blood was centrifuged at 7800 g/min for 10 min at 4°C. Plasma was collected and stored in a freezer at −80°C. Plasma drug concentration was analyzed using LC-MS/MS. Pharmacokinetic parameters were calculated using WinNonlin software (version 6.4), and a non-atrioventricular model was used for data fitting. The data were analyzed using Microsoft Excel 2016 and GraphPad Prism 7.0.

[3] = Single-dose pharmacokinetics in BALB/c mice; format: in vivo; conditions: for AUC(0-t) / CL/F / Cmax / Tmax / Vd/F / half-life / MRT last / MRT inf: BALB/c, mouse, plasma; for MRT last: read-out: MRT0−t; for MRT inf: read-out: MRT0−∞
Method: as §1

SARS-CoV-2 (HRB26M) = assay: microbe, parasite or virus in culture; format: cell-based; conditions: Severe acute respiratory syndrome coronavirus 2, Vero C1008, 24 h, combination molar ratio 1:1, read-out: EC50 (50% inhibitory concentration)
[4] = 33.5 mg/kg, i.m., combined (GC376 55.5 + GS441524 33.5 mg/kg)
[5] = alone (GC376 111 mg/kg; GS441524 67 mg/kg)
[6] = im, 33.5 mg/kg, BALB/c mice, i.m., combined (GC376 55.5 + GS441524 33.5 mg/kg)
[7] = im, BALB/c mice, alone (GC376 111 mg/kg; GS441524 67 mg/kg)
[8] = im, BALB/c mice, i.m., alone (GC376 111 mg/kg; GS441524 67 mg/kg)
[9] = combined (GC376 55.5 + GS441524 33.5 mg/kg)
[10] = im, BALB/c mice, i.m., combined (GC376 55.5 + GS441524 33.5 mg/kg)

Compound: N#C[C@@]1(c2ccc3c(N)ncnn23)O[C@H](CO)[C@@H](O)[C@H]1O [GS441524]
- CC50 at 24 h [1]: > 250 µM
- AUC(0-t) ([2]; 33.5 mg/kg): 88300 ± 26800 ng·h/mL
- Tmax ([2]; 33.5 mg/kg): 3.4 ± 1.2 h
- Vd/F ([2]; 33.5 mg/kg): 2.71 ± 1.25 L/kg
- CL/F [2, 4]: 6.6 mL/min/kg
- Cmax [2, 4]: 10500 ± 1850 ng/mL
- half-life [2, 4]: 308 ± 154 min
- MRT last [2, 4]: 6.03 ± 1.37 h
- MRT inf [2, 4]: 7.57 ± 2.93 h
- AUC(0-t) [2, 5]: 183000 ± 64400 ng·h/mL
- CL/F [2, 5]: 7.05 mL/min/kg
- Cmax [2, 5]: 31000 ± 8400 ng/mL
- Tmax [2, 5]: 2 ± 1.1 h
- Vd/F [2, 5]: 2.25 ± 0.946 L/kg
- half-life [2, 5]: 228 ± 70.2 min
- MRT last [2, 5]: 4.5 ± 1.11 h
- MRT inf [2, 5]: 4.78 ± 1.49 h
- AUC0−t of GS441524, fold higher than GC376 ([2]; i.m., alone): approximately 2.0 fold
- AUC0−t of GS441524 relative to that of GC376 ([3]; BALB/c mice, i.m., alone): approximately 1.9 fold
- AUC(0-t) [3, 6]: 49000 ± 11700 ng·h/mL
- CL/F [3, 6]: 11.8 mL/min/kg
- Cmax [3, 6]: 16000 ± 2200 ng/mL
- Tmax [3, 6]: 33 ± 14.4 min
- Vd/F [3, 6]: 1.68 ± 0.282 L/kg
- half-life [3, 6]: 100 ± 14.4 min
- MRT last [3, 6]: 2.37 ± 0.73 h
- MRT inf [3, 6]: 2.48 ± 0.71 h
- AUC(0-t) [3, 7]: 107000 ± 16800 ng·h/mL
- CL/F [3, 7]: 10.7 mL/min/kg
- Cmax [3, 7]: 39600 ± 2930 ng/mL
- Tmax [3, 7]: 48 ± 14.4 min
- Vd/F [3, 7]: 1.37 ± 0.129 L/kg
- half-life [3, 7]: 90.6 ± 9.6 min
- MRT last [3, 8]: 2.07 ± 0.42 h
- MRT inf [3, 8]: 2.15 ± 0.42 h
- EC50 (SARS-CoV-2 (HRB26M)): 5050 ± 2120 nM

Compound: CC(C)CC(NC(=O)OCc1ccccc1)C(=O)NC(CC1CCNC1=O)C(O)S(=O)(=O)O (centres unmarked) [GC376]
- CC50 at 24 h [1]: > 250 µM
- AUC(0-t) [2]: 42400 ± 6440 ng·h/mL
- Tmax [2]: 1.4 ± 0.49 h
- Vd/F [2]: 5.17 ± 1.87 L/kg
- AUC(0-t) [2, 5]: 92100 ± 9990 ng·h/mL
- CL/F [2, 5]: 20.1 mL/min/kg
- Cmax [2, 5]: 12600 ± 1900 ng/mL
- Tmax [2, 5]: 1.3 ± 0.6 h
- Vd/F [2, 5]: 6.75 ± 1.04 L/kg
- half-life [2, 5]: 232 ± 29.4 min
- MRT last [2, 5]: 5.83 ± 0.74 h
- MRT inf [2, 5]: 6.06 ± 0.64 h
- CL/F [2, 9]: 21.9 mL/min/kg
- Cmax [2, 9]: 11800 ± 1630 ng/mL
- half-life [2, 9]: 165 ± 54.6 min
- MRT last [2, 9]: 2.97 ± 0.41 h
- MRT inf [2, 9]: 3.32 ± 0.57 h
- Cmax of GC376, fold lower than GS441524 ([2]; i.m., alone): approximately 2.5 fold
- clearance rate (CL/F) of GC376 relative to that of GS441524 ([2]; i.m., alone): approximately 2.9 fold
- Cmax of GC376 relative to that of GS441524 ([3]; BALB/c mice, i.m., alone): approximately 1.2 fold
- clearance rate (CL/F) of GC376 relative to that of GS441524 ([3]; BALB/c mice, i.m., alone): approximately 3.1 fold
- half-life ([3]; (GC376 55.5 + GS441524 33.5 mg/kg)): 48.6 ± 13.2 min
- AUC(0-t) [3, 7]: 55300 ± 11300 ng·h/mL
- CL/F [3, 7]: 33.1 mL/min/kg
- Cmax [3, 7]: 46700 ± 10700 ng/mL
- Tmax [3, 7]: 13.2 ± 4.2 min
- Vd/F [3, 7]: 2.87 ± 0.432 L/kg
- half-life [3, 7]: 67.2 ± 31.8 min
- MRT last [3, 8]: 1.05 ± 0.12 h
- MRT inf [3, 8]: 1.38 ± 0.59 h
- AUC(0-t) [3, 10]: 27800 ± 4410 ng·h/mL
- CL/F [3, 10]: 33.9 mL/min/kg
- Cmax [3, 10]: 30040 ± 220 ng/mL
- Tmax [3, 10]: 15 min
- Vd/F [3, 10]: 2.34 ± 0.617 L/kg
- MRT last [3, 10]: 0.79 ± 0.09 h
- MRT inf [3, 10]: 0.88 ± 0.12 h
- EC50 (SARS-CoV-2 (HRB26M)): 881 ± 109 nM
